In US20050245563A1 (Millennium Pharmaceuticals, Inc., priority 2003, published 2005):
pIC50: −log10 of the molar value.

Target: T1, human Chk1 (GST-Chk1) (Homo sapiens, UniProt O14757)
T1 construct: made in house; host or cells: insect cells (baculovirus, Bac-to-Bac)
T1 sequence (O14757 1-476): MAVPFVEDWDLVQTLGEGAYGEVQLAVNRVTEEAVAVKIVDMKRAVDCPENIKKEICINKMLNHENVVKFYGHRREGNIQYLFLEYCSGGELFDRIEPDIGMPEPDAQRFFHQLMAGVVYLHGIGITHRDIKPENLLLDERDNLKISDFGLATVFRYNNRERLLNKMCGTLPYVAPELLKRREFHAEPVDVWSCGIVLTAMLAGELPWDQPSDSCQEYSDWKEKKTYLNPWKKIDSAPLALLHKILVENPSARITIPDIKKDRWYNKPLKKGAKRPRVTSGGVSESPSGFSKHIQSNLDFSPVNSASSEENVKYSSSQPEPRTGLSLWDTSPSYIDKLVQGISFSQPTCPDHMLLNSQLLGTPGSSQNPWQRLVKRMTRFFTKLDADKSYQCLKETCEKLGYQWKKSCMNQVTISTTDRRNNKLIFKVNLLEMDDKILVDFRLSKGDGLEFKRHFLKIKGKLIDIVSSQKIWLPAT
Assay: Chk1 DELFIA kinase assay (2 nM GST-Chk1, 600 μM ATP)
Format: biochemical
Settings: Biotin-GLYRSPSMPEN-amide substrate
In short: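 Enzyme is N-terminal GST-Chk1 from baculovirus/insect cells, assayed with 1 μM biotin-GLYRSPSMPEN-amide in pH 7.5 Tris buffer, 4% DMSO and 10 mM MgCl2 for 50 min at room temperature. EDTA-stopped reactions were captured on NeutrAvidin. Phospho-peptide was detected by anti-phospho-Ser216-Cdc25c antibody with europium-labeled secondary and time-resolved fluorescence.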

| pIC50 | Compound |
| --- | --- |
| > 6.00 | CNCCCn1c(=O)c2c(C)[nH]nc2c2cc(Cl)ccc21 [Example 231, 8-Chloro-3-methyl-5-(3-methylamino-propyl)-2,5-dihydro-pyrazolo[4,3-c]quinolin-4-one] |
| > 6.00 | CCCc1[nH]nc2c1c(=O)n(CCCN)c1ccc(Cl)cc21 [Example 364, 5-(3-Amino-propyl)-8-chloro-3-propyl-2,5-dihydro-pyrazolo[4,3-c]quinolin-4-one] |
| > 6.00 | Cc1[nH]nc2c1c(=O)n(CCCN)c1ccc(-c3ccc(N(C)C)cc3)cc21 [Example 307, 5-(3-Amino-propyl)-8-(4-dimethylamino-phenyl)-3-methyl-2,5-dihydro-pyrazolo [4,3-c]quinolin-4-one] |
| > 6.00 | CCCOc1ccc2c(c1)c1n[nH]c(C)c1c(=O)n2CCCN [Example 258, 5-(3-Amino-propyl)-3-methyl-8-propoxy-2,5-dihydro-pyrazolo[4,3-c]quinolin-4-one] |
| 5.00 to 6.00 | Cc1[nH]nc2c1c(=O)n(C)c1c(C#CCO)cc(Cl)cc21 [Compound 344, 8-Chloro-6-(3-hydroxy-prop-1-ynyl)-3,5-dimethyl-2,5-dihydro-pyrazolo[4,3-c]quinolin-4-one] |
| > 6.00 | Cc1[nH]nc2c1c(=O)n(CCCN)c1ccc(I)cc21 [Compound 208, 5-(3-Amino-propyl)-8-iodo-3-methyl-2,5-dihydro-pyrazolo[4,3-c]quinolin-4-one] |
| 5.00 to 6.00 | COC(=O)c1ccc2c3n[nH]c(C)c3c(=O)n(CCCN)c2c1 [Compound 334, 5-(3-Amino-propyl)-3-methyl-4-oxo-4,5-dihydro-2H-pyrazolo[4,3-c]quinoline-7-carboxylic acid methyl ester] |
| > 6.00 | C#Cc1ccc2c(c1)c1n[nH]c(C)c1c(=O)n2C[C@H]1CCCNC1 [Example 303, 8-Ethynyl-3-methyl-5-piperidin-3-ylmethyl-2,5-dihydro-pyrazolo[4,3-c]quinolin-4-one] |
| > 6.00 | CCCNCCCn1c(=O)c2c(C)[nH]nc2c2cc(Cl)ccc21 [Example 239, 8-Chloro-3-methyl-5-(3-propylamino-propyl)-2,5-dihydro-pyrazolo[4,3-c]quinolin-4-one] |
| > 6.00 | Cc1[nH]nc2c1c(=O)n(CCCN)c1ccc(NC(=O)[C@@H]3CCCN3)cc21 [Example 262, Pyrrolidine-2S-carboxylic acid [5-(3-amino-propyl)-3-methyl-4-oxo-4,5-dihydro-2H-pyrazolo[4,3-c]quinolin-8-yl]-amide] |
| > 6.00 | CCc1ccc2c(c1)c1n[nH]c(CCO)c1c(=O)n2CCCO [Example 363, 8-Ethyl-3-(2-hydroxy-ethyl)-5-(3-hydroxy-propyl)-2,5-dihydro-pyrazolo[4,3-c]quinolin-4-one] |
| > 6.00 | Cc1[nH]nc2c1c(=O)n(CCCN)c1ccc(CCCN(C)C)cc21 [Example 296, 5-(3-Amino-propyl)-8-(3-dimethylamino-propyl)-3-methyl-2,5-dihydro-pyrazolo[4,3-c]quinolin-4-one] |
| > 6.00 | COC(=O)/C(=C/c1ccc2c(c1)c1n[nH]c(C)c1c(=O)n2CCCN)NC(C)=O [Example 270, 2-Acetylamino-3-[5-(3-amino-propyl)-3-methyl-4-oxo-4,5-dihydro-2H-pyrazolo[4,3-c]quinolin-8-yl]-acrylic acid methyl ester] |
| > 6.00 | CC(=O)NCCCc1ccc2c(c1)c1n[nH]c(C)c1c(=O)n2CCCN [Example 298, N-{3-[5-(3-Amino-propyl)-3-methyl-4-oxo-4,5-dihydro-2H-pyrazolo[4,3-c]quinolin-8-yl]-propyl}-acetamide] |
| > 6.00 | Cc1[nH]nc2c1c(=O)n(CCCN)c1ccc(C#CCN(C)Cc3ccccc3)cc21 [Example 275, 5-(3-Amino-propyl)-8-[3-(benzyl-methyl-amino)-prop-1-ynyl]-3-methyl-2,5-dihydro-pyrazolo[4,3-c]quinolin-4-one] |
| > 6.00 | COC(=O)/C=C/c1ccc2c(c1)c1n[nH]c(C)c1c(=O)n2CCCN [Compound 267, 3-[5-(3-Amino-propyl)-3-methyl-4-oxo-4,5-dihydro-2H-pyrazolo[4,3-c]quinolin-8-yl]-acrylic acid methyl ester] |
| > 6.00 | CC(C)c1[nH]nc2c1c(=O)n(CCCN)c1ccc(Cl)cc21 [Compound 325, 5-(3-Amino-propyl)-8-chloro-3-isopropyl-2,5-dihydro-pyrazolo[4,3-c]quinolin-4-one] |
| > 6.00 | Cc1[nH]nc2c1c(=O)n(CCC(O)Cn1ccnc1)c1ccc(Cl)cc21 (stereo not shown) [Compound 252, 8-Chloro-5-(3-hydroxy-4-imidazol-1-yl-butyl)-3-methyl-2,5-dihydro-pyrazolo[4,3-c]quinolin-4-one] |

| pIC50 | Compound |
| --- | --- |
| > 6.00 | CCc1ccc2c(c1)c1n[nH]c(C)c1c(=O)n2CCCNC [Example 300, 8-Ethyl-3-methyl-5-(3-methylamino-propyl)-2,5-dihydro-pyrazolo[4,3-c]quinolin-4-one] |
| > 6.00 | CCc1[nH]nc2c1c(=O)n(CCCN)c1ccc(C#CCN3CCCC3)cc21 [Example 329, 5-(3-Amino-propyl)-3-ethyl-8-(3-pyrrolidin-1-yl-prop-1-ynyl)-2,5-dihydro-pyrazolo[4,3-c]quinolin-4-one] |
| > 6.00 | Cc1[nH]nc2c1c(=O)n(CCCNCc1ccc[nH]1)c1ccc(Cl)cc21 [Example 243, 8-Chloro-3-methyl-5-{3-[(1H-pyrrol-2-ylmethyl)-amino]-propyl}2,5-dihydro-pyrazolo[4,3-c]quinolin-4-one] |
| > 6.00 | Cc1[nH]nc2c1c(=O)n(CC[C@@H](C)N)c1ccc(Cl)cc21 [Example 217, 5-(3R-Amino-butyl)-8-chloro 3-methyl-2,5-dihydro-pyrazolo[4,3-c]quinolin-4-one] |
| > 6.00 | C#Cc1ccc2c(c1)c1n[nH]c(CC)c1c(=O)n2CCCN [Compound 360, 5-(3-Amino-propyl)-3-ethyl-8-ethynyl-2,5-dihydro-pyrazolo[4,3-c]quinolin-4-one] |
| > 6.00 | CC(=O)Nc1ccc2c(c1)c1n[nH]c(C)c1c(=O)n2CCCN [Example 261, N-[5-(3-Amino-propyl)-3-methyl-4-oxo-4,5-dihydro-2H-pyrazolo[4,3-c]quinolin-8-yl]-acetamide] |
| > 6.00 | COCCc1[nH]nc2c1c(=O)n(CCC(C)N)c1ccc(Cl)cc21 (stereo not shown) [Example 219] |
| > 6.00 | Cc1[nH]nc2c1c(=O)n(CCCN)c1ccc(-c3cccnc3)cc21 [Example 308, 5-(3-Amino-propyl)-3-methyl-8-pyridin-3-yl-2,5-dihydro-pyrazolo[4,3-c]quinolin-4-one] |
| 5.00 to 6.00 | Cc1[nH]nc2c1c(=O)n(C)c1c(CCCN)cc(Cl)cc21 [Compound 343, 6-(3-Amino-propyl)-8-chloro-3,5-dimethyl-2,5-dihydro-pyrazolo[4,3-c]quinolin-4-one] |
| > 6.00 | Cc1[nH]nc2c1c(=O)n(C[C@H]1CCCNC1)c1ccc(Cl)cc21 [Example 225, 8-Chloro-3-methyl-5S-piperidin-3-ylmethyl-2,5-dihydro-pyrazolo[4,3-c]quinolin-4-one] |
| > 6.00 | COCCc1[nH]nc2c1c(=O)n(CCCN)c1ccc(C)cc21 [Example 354, 5-(3-Amino-propyl)-3-(2-methoxy-ethyl)-8-methyl-2,5-dihydro-pyrazolo[4,3-c]quinolin-4-one] |
| > 6.00 | Cc1[nH]nc2c1c(=O)n(CCCN)c1ccc(C#CCN3CCCC3)cc21 [Example 285, 5-(3-Amino-propyl)-3-methyl-8-(3-pyrrolidin-1-yl-prop-1-ynyl]-2,5-dihydro-pyrazolo[4,3-c]quinolin4-one] |
| > 6.00 | Cc1[nH]nc2c1c(=O)n(CC(O)C1CCCN1)c1ccc(Cl)cc21 (stereo not shown) [Example 246, 8-Chloro-5-(2-hydroxy-2-pyrrolidin-2-yl-ethyl)-3-methyl-2,5-dihydro-pyrazolo[4,3-c]quinolin-4-one] |
| > 6.00 | NCCCn1c(=O)c2c(C3CCCC3)[nH]nc2c2cc(Cl)ccc21 [Example 365, 5-(3-Amino-propyl)-8-chloro-3-cyclopentyl-2,5-dihydro-pyrazolo[4,3-c]quinolin4-one] |
| > 6.00 | Cc1[nH]nc2c1c(=O)n(C[C@H](C)CN)c1ccc(F)cc21 (stereo in doubt) [Compound 202, 5-(3-Amino-2-methyl-propyl)-8-fluoro-3-methyl-2,5-dihydro-pyrazolo[4,3-c]quinolin-4-one] |
| > 6.00 | CNCCCn1c(=O)c2c(C)[nH]nc2c2cc(C)ccc21 [Example 235, 3,8-Dimethyl-5-(3-methylamino-propyl)-2,5-dihydro-pyrazolo[4,3-c]quinolin-4-one] |
| > 6.00 | Cc1[nH]nc2c1c(=O)n(CCCN)c1ccc(NC(=O)CCN3CCCCC3)cc21 [Example 369, N-[5-(3-Amino-propyl)-3-methyl4-oxo-4,5-dihydro-2H-pyrazolo[4,3-c]quinolin-8-yl]-3-piperidin-1-yl-propionamide] |
| 5.00 to 6.00 | Cc1[nH]nc2c1c(=O)n(CCCN)c1c([N+](=O)[O-])cc(Cl)cc21 [Compound 347, 5-(3-Amino-propyl)-8-chloro-3-methyl-6-nitro-2,5-dihydro-pyrazolo[4,3-c]quinolin-4-one] |

| Compound | pIC50 |
| --- | --- |
| Cc1[nH]nc2c1c(=O)n(CCCN)c1ccc(OCC(C)C)cc21 [Example 259, 5-(3-Amino-propyl)-8-isobutoxy-3-methyl-2,5-dihydro-pyrazolo[4,3-c]quinolin-4-one] | > 6.00 |
